PubChem BioAssay AID248 (DTP/NCI, 2004)
Values joined by “and” are separate entries in the source; they are usually repeats but may differ in a detail not shown here. Identical values can stand only once. Toxic doses and inconclusive results are not listed. Cut-off read from the data, not from the text of the source: active = T/C of 150% or more; inactive = T/C below 125%.

Tested on: L1210 leukemia ip in BDF1 mice, survival T/C
Experiment: NCI In Vivo Anticancer Drug Screen. Data for tumor model L1210 Leukemia (intraperitoneal) in B6D2F1 (BDF1) mice
Conditions: endpoint: mean survival time, higher = longer survival
Procedure, shortened: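 Antitumor effect is assessed in tumor-bearing animals. Survival in the compound arm is compared with a vehicle-dosed control arm and expressed as their quotient.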

[1] = dose: 100.0 mg/kg/injection, schedule: Q01DX009 (ip), vehicle: Klucel (hydroxypropylcellulose) (HPC)
[2] = dose: 100.0 mg/kg/injection, schedule: Q04DX003 (ip), vehicle: Klucel (hydroxypropylcellulose) (HPC)
[3] = dose: 200.0 mg/kg/injection, schedule: Q01DX009 (ip), vehicle: Klucel (hydroxypropylcellulose) (HPC)
[4] = dose: 200.0 mg/kg/injection, schedule: Q04DX003 (ip), vehicle: Klucel (hydroxypropylcellulose) (HPC)
[5] = dose: 100.0 mg/kg/injection, schedule: Q04DX003 (ip), vehicle: saline
[6] = dose: 200.0 mg/kg/injection, schedule: Q04DX003 (ip), vehicle: saline
[7] = dose: 100.0 mg/kg/injection, schedule: Q01DX001 (ip), vehicle: saline
[8] = dose: 200.0 mg/kg/injection, schedule: Q01DX001 (ip), vehicle: saline
[9] = dose: 400.0 mg/kg/injection, schedule: Q01DX001 (ip), vehicle: saline
[10] = dose: 100.0 mg/kg/injection, schedule: Q01DX009 (ip), vehicle: saline with Tween-80
[11] = dose: 200.0 mg/kg/injection, schedule: Q01DX009 (ip), vehicle: saline with Tween-80
[12] = dose: 100.0 mg/kg/injection, schedule: Q04DX003 (ip), vehicle: saline with Tween-80
[13] = dose: 200.0 mg/kg/injection, schedule: Q04DX003 (ip), vehicle: saline with Tween-80
[14] = dose: 400.0 mg/kg/injection, schedule: Q04DX003 (ip), vehicle: saline with Tween-80
[15] = dose: 100.0 mg/kg/injection, schedule: Q04DX002 (ip), vehicle: Klucel (hydroxypropylcellulose) (HPC)
[16] = dose: 200.0 mg/kg/injection, schedule: Q04DX002 (ip), vehicle: Klucel (hydroxypropylcellulose) (HPC)
[17] = dose: 100.0 mg/kg/injection, schedule: Q01DX001 (ip), vehicle: carboxymethylcellulose (CMC)
[18] = dose: 200.0 mg/kg/injection, schedule: Q01DX001 (ip), vehicle: carboxymethylcellulose (CMC)
[19] = dose: 400.0 mg/kg/injection, schedule: Q01DX001 (ip), vehicle: carboxymethylcellulose (CMC)

Measured: T/C

CN=C(NN(C)C)c1ccc(NC(=O)c2ccc(C(=O)Nc3ccc(C(=NC)NN(C)C)cc3)cc2)cc1
inactive: dose: 2.5 mg/kg/injection, schedule: Q01DX Z (ip), vehicle: carboxymethylcellulose (CMC) 97 % of control | dose: 5.0 mg/kg/injection, schedule: Q01DX Z (ip), vehicle: carboxymethylcellulose (CMC) 111 % of control | dose: 25.0 mg/kg/injection, schedule: Q01DX Z (oral), vehicle: carboxymethylcellulose (CMC) 116 % of control | dose: 50.0 mg/kg/injection, schedule: Q01DX Z (oral), vehicle: carboxymethylcellulose (CMC) 110 % of control | dose: 100.0 mg/kg/injection, schedule: Q01DX Z (oral), vehicle: carboxymethylcellulose (CMC) 102 % of control | dose: 200.0 mg/kg/injection, schedule: Q01DX Z (oral), vehicle: carboxymethylcellulose (CMC) 104 % of control

CC(=O)C(C)C(O)c1ccc([N+](=O)[O-])cc1 (centres undefined)
inactive: [1] 91 % of control | [2] 100 % of control | [3] 91 % of control | [4] 98 % of control | dose: 400.0 mg/kg/injection, schedule: Q01DX009 (ip), vehicle: Klucel (hydroxypropylcellulose) (HPC) 92 % of control | dose: 400.0 mg/kg/injection, schedule: Q04DX003 (ip), vehicle: Klucel (hydroxypropylcellulose) (HPC) 98 % of control

c1ccc2[nH]c(-c3ccc(N=Nc4ccc(-c5nc6ccccc6[nH]5)cc4)cc3)nc2c1
inactive: dose: 15.0 mg/kg/injection, schedule: Q01DX Z (ip), vehicle: other 100 % of control | dose: 30.0 mg/kg/injection, schedule: Q01DX Z (ip), vehicle: other 97 % of control | dose: 60.0 mg/kg/injection, schedule: Q01DX Z (ip), vehicle: other 105 % of control | dose: 120.0 mg/kg/injection, schedule: Q01DX Z (ip), vehicle: other 96 % of control | dose: 180.0 mg/kg/injection, schedule: Q01DX Z (ip), vehicle: carboxymethylcellulose (CMC) 108 % of control | dose: 270.0 mg/kg/injection, schedule: Q01DX Z (ip), vehicle: carboxymethylcellulose (CMC) 101 % of control

COC(=O)c1ccc2c(c1)OCO2
inactive: dose: 100.0 mg/kg/injection, schedule: Q01DX001 (ip), vehicle: saline with Tween-80 100 % of control | dose: 100.0 mg/kg/injection, schedule: Q01DX009 (ip), vehicle: saline sonified 94 % of control | dose: 200.0 mg/kg/injection, schedule: Q01DX001 (ip), vehicle: saline with Tween-80 103 % of control | dose: 200.0 mg/kg/injection, schedule: Q01DX009 (ip), vehicle: saline sonified 100 % of control | dose: 400.0 mg/kg/injection, schedule: Q01DX001 (ip), vehicle: saline with Tween-80 95 % of control | dose: 400.0 mg/kg/injection, schedule: Q01DX009 (ip), vehicle: saline sonified 102 % of control

O=C(O)c1ccc(I)cc1.[Ni]
inactive: dose: 25.0 mg/kg/injection, schedule: Q04DX002 (ip), vehicle: Klucel (hydroxypropylcellulose) (HPC) 100 % of control | dose: 50.0 mg/kg/injection, schedule: Q04DX002 (ip), vehicle: Klucel (hydroxypropylcellulose) (HPC) 100 % of control

CN=C1N[N+]2=C(C)CCCC2(C)S1 (centres undefined)
inactive: [5] 101 % of control | [6] 89 % of control

CCCN(CCC)CCCCN(CCC)CCCN(CCC)CCC
inactive: [7] 107 % of control | [8] 94 % of control

O=C(Nc1nccs1)C(F)(F)F
inactive: [7] 109 % of control | [8] 109 % of control | [9] 102 % of control

CCOP(=S)(N/N=C1/C2(C)CCC(C2)C1(C)C)OCC (centres undefined)
inactive: [7] 97 % of control | [8] 97 % of control | [9] 91 % of control

COc1ccccc1OC(=O)c1ccccc1O
inactive: [7] 107 % of control | [5] 90 % of control | [8] 100 % of control | [6] 90 % of control | [9] 94 % of control | dose: 400.0 mg/kg/injection, schedule: Q04DX003 (ip), vehicle: saline 88 % of control

CC(=O)c1cccc2c1cc(Cl)c1ccccc12
inactive: dose: 55.0 mg/kg/injection, schedule: Q01DX Z (ip), vehicle: methylcellulose (MC) 100 % of control | dose: 83.0 mg/kg/injection, schedule: Q01DX Z (ip), vehicle: methylcellulose (MC) 93 % of control | dose: 125.0 mg/kg/injection, schedule: Q01DX Z (ip), vehicle: methylcellulose (MC) 93 % of control

CC(C)(C)OC(=O)NCCCCC(NC(=O)OCc1ccccc1)C(=O)Oc1ccc([N+](=O)[O-])cc1 (centres undefined)
inactive: [10] 88 % of control | [11] 93 % of control

Oc1ccc(CNc2nn[nH]n2)cc1
inactive: [12] 94 % of control | [13] 96 % of control | [14] 96 % of control

CN1C2CC(OC3CCCCO3)C(C2)N1C (centres undefined)
inactive: [10] 95 % of control | [12] 94 % of control | dose: 132.0 mg/kg/injection, schedule: Q04DX003 (ip), vehicle: saline with Tween-80 100 % of control | [11] 100 % of control | [13] 102 % of control | dose: 300.0 mg/kg/injection, schedule: Q04DX003 (ip), vehicle: saline with Tween-80 117 % of control | dose: 400.0 mg/kg/injection, schedule: Q01DX009 (ip), vehicle: saline with Tween-80 93 % of control | [14] 102 % of control

CSc1ccc(NC(=O)Oc2ccccc2C(=O)OCc2ccccc2)cc1
inactive: dose: 100.0 mg/kg/injection, schedule: Q01DX009 (ip), vehicle: gum acacia 95 % of control | dose: 200.0 mg/kg/injection, schedule: Q01DX009 (ip), vehicle: gum acacia 100 % of control | dose: 400.0 mg/kg/injection, schedule: Q01DX009 (ip), vehicle: gum acacia 102 % of control

c1ccc2c(-c3c4ccccc4cc4ccccc34)c3ccccc3cc2c1
inactive: [15] 91 % of control | [16] 105 % of control | dose: 400.0 mg/kg/injection, schedule: Q04DX002 (ip), vehicle: Klucel (hydroxypropylcellulose) (HPC) 91 % of control

CC(=O)Nc1ccc(S(C)(=O)=O)cc1I
inactive: [17] 93 % of control | [18] 96 % of control | [19] 91 % of control

O=C(NCc1ccncc1)Nc1ccccc1F
inactive: dose: 100.0 mg/kg/injection, schedule: Q01DX001 (ip), vehicle: Klucel (hydroxypropylcellulose) (HPC) 93 % of control | [1] 100 % of control | [15] 94 % of control and 103 % of control | [2] 94 % of control | dose: 200.0 mg/kg/injection, schedule: Q01DX001 (ip), vehicle: Klucel (hydroxypropylcellulose) (HPC) 104 % of control | [3] 98 % of control and 105 % of control | [16] 101 % of control and 91 % of control | [4] 97 % of control

CCCCSc1ncc(C)c(NC)n1
inactive: dose: 25.0 mg/kg/injection, schedule: Q01DX Z (ip), vehicle: methylcellulose (MC) 92 % of control | dose: 50.0 mg/kg/injection, schedule: Q01DX Z (ip), vehicle: methylcellulose (MC) 95 % of control

CN(N=O)c1ccc(C=C2c3ccccc3-c3ccccc32)cc1
inactive: dose: 50.0 mg/kg/injection, schedule: Q01DX001 (ip), vehicle: carboxymethylcellulose (CMC) 102 % of control | [17] 106 % of control | [18] 96 % of control | [19] 102 % of control

OC(c1ccccc1)(c1ccccc1)C1CCCCC1C(O)(c1ccccc1)c1ccccc1 (centres undefined)
inactive: dose: 100.0 mg/kg/injection, schedule: Q01DX009 (ip), vehicle: saline 93 % of control | dose: 200.0 mg/kg/injection, schedule: Q01DX009 (ip), vehicle: saline 93 % of control | dose: 400.0 mg/kg/injection, schedule: Q01DX009 (ip), vehicle: saline 89 % of control

CCCCCCCCSCCO
inactive: dose: 12.0 mg/kg/injection, schedule: Q01DX009 (ip), vehicle: saline with Tween-80 104 % of control | dose: 25.0 mg/kg/injection, schedule: Q01DX009 (ip), vehicle: saline with Tween-80 101 % of control | dose: 50.0 mg/kg/injection, schedule: Q01DX009 (ip), vehicle: saline with Tween-80 95 % of control | dose: 50.0 mg/kg/injection, schedule: Q04DX003 (ip), vehicle: saline with Tween-80 98 % of control | [12] 96 % of control | [13] 94 % of control | [14] 98 % of control

c1ccc2cc3c(ccc4cccc[n+]43)cc2c1
inactive: dose: 50.0 mg/kg/injection, schedule: Q01DX001 (ip), vehicle: saline 119 % of control

O=C(O)c1c(Cl)c(Cl)c(Cl)c(Cl)c1-c1c2ccc(=O)c(O)c-2oc2c(O)c(O)ccc12
inactive: [5] 102 % of control | [6] 93 % of control
